Earlier results as cited in PMC12266345, “Discovery and characterization of selective lipase-inhibiting polyheterocyclic derivatives: a combined in silico and in vitro study” (Turkish Journal of Biology, 2025).
In brackets after ≈: the same amount, converted by molar mass. Where two headings read alike, the source gives them in different places.

Biological target: lipase
[1] = ref Ruiz et al., 2006, Benarous et al., 2015

For `O=C(N[C@H](CO)[C@H](O)c1ccc([N+](=O)[O-])cc1)C(Cl)Cl` [Chloramphenicol], the IC50 lipase inhibition (ref Liu et al., 2006) is given as 220 ± 0.003 µg/mL (≈ 681 µM).

In the case of `O.Oc1cc(O)c2c(c1)O[C@H](c1ccc(O)c(O)c1)[C@@H](O)C2` [catechin], the IC50 lipase inhibition [1] is given as 183 µg/mL.

In the case of `Cc1nc(-c2ccc(OCC(C)C)c(C#N)c2)sc1C(=O)O` [febuxostat], the IC50 lipase inhibition (ref Serseg and Benarous, 2018) is given as 660 µg/mL (≈ 2090 µM).

For `Nc1nc(=O)c2nc(CNc3ccc(C(=O)N[C@@H](CCC(=O)O)C(=O)O)cc3)cnc2[nH]1` [folic acid], the IC50 lipase inhibition (ref Serseg and Benarous, 2018) is listed as 640 µg/mL (≈ 1450 µM).

For `COc1ccc2c3c([nH]c2c1)C(C)=NCC3` [harmaline], the IC50 lipase inhibition [1] is given as 830 µg/mL (≈ 3870 µM).

In the case of `O=c1cc(O)cc(/C=C/c2ccc(O)c(O)c2)o1` [hispidin], the IC50 lipase inhibition [1] is listed as 179 µg/mL (≈ 727 µM).

In the case of `CCOC(=O)N1CCC(=C2c3ccc(Cl)cc3CCc3cccnc32)CC1` [loratadine], the IC50 lipase inhibition (ref Benarous et al., 2018) is listed as 440 ± 0.02 µg/mL (≈ 1150 µM).

In the case of `CN(C)[C@@H]1C(O)=C(C(N)=O)C(=O)[C@@]2(O)C(O)=C3C(=O)c4c(O)cccc4[C@@](C)(O)[C@H]3C[C@@H]12` [tetracycline], the IC50 lipase inhibition (ref Liu et al., 2006) is given as 470 ± 0.005 µg/mL (≈ 1060 µM).
